Read-outs that look alike come from different tables or passages of the source.

Consider eight compounds from publication PMC12498411, “Antidepressant-like Properties of a Selenium-Containing Pyridinium Salt Explored through In Vitro, In Vivo, and In Silico Approaches” (ACS Chemical Neuroscience, 2025).

One data set relates to female Swiss mice. Also on record: method as in previously conducted by our research group. The settings on record: same methodology layout; ref previously conducted by our research group; cited from earlier work.
A further data set has as its target T1, MAO-A (Mus musculus, UniProt Q64133).
T1 construct: Mitochondria-enriched brain preparations were obtained in accordance with established methodology outlined in literature; from tissue; host or cells: mouse brain, mitochondria-enriched fraction
T1 sequence (Q64133 1-526): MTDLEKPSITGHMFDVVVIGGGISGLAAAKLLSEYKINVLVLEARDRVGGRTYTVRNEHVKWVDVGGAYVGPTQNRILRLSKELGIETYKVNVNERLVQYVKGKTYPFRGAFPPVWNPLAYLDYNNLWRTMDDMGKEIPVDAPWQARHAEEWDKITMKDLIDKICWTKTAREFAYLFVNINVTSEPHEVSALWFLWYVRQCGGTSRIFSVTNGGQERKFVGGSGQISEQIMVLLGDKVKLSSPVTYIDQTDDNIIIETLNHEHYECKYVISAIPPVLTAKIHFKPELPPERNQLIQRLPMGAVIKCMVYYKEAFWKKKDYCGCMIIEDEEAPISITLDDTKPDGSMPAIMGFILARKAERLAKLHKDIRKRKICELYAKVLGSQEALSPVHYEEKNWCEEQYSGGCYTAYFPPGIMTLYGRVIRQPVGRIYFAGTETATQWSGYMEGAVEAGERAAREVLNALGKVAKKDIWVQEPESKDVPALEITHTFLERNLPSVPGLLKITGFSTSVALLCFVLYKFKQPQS
The data set is described as follows: Cerebral MAO-A activity, mitochondria-enriched mouse brain fraction (kynuramine, fluorimetric). The data set is classed as biochemical. Here is the method: (§1) Mitochondria-enriched brain preparations were obtained in accordance with established methodology outlined in literature. The homogenate was prepared using the mouse brain tissue and a homogenization buffer (Na2PO4/KH2PO4/sucrose) at a ratio of 1:4 (w/v). The homogenate was centrifuged at 900g at 4 °C for 5 min. The resulting supernatant was separated and subjected to centrifugation at 12,500g for 15 min. The resulting pellet was resuspended in the homogenization buffer and subjected to a further round of centrifugation under identical conditions. Finally, the mitochondrial pellet obtained was reconstituted in an assay buffer solution (Na2PO4/KH2PO4/KCl). Protein concentration was estimated using the Bradford method and standardized as 1 mg/mL for the experiments.
(§2) MAO activity was assessed following the method outlined by Krajl, with some modifications by Matsumoto. Briefly, a 100 μL aliquot of the mitochondria-rich fraction was incubated at 37 °C for 5 min with specific MAO inhibitors: clorgyline (250 nM, a MAO-A inhibitor), or pargyline (250 nM, a MAO-B inhibitor). Then, 10 μL of each compound was introduced at varying concentrations (25–200 μM). Water (10 μL) was used in the control tubes. Afterward, the substrate, 20 μL of kynuramine dihydrobromide, was added to achieve a final concentration of 90 μM for MAO-A and 60 μM for MAO-B. The samples were incubated at 37 °C for 30 min. The reaction was halted by the addition of 300 μL of 10% trichloroacetic acid (TCA). After centrifuging at 16,000g for 15 min, an aliquot of 800 μL of the supernatant was mixed with 1 mL of 1 M sodium hydroxide (NaOH). The samples were measured using a fluorimeter with excitation at 315 nm and emission at 380 nm.

For data set [1], the system named is cerebral lipid peroxidation. The experiment in a line: TBARS assay, SNP-induced lipid peroxidation in brain homogenate. The data set is classed as biochemical, mouse. As to conditions: for Concentrations effective in reversing SNP-induced oxidative damage (TBARS): tested up to 500 μM. Here is the method:
(§3) Brains from mice of both sexes were used for in vitro assays, each performed in duplicate across three independent experiments (n = 3), conducted on different days.
The brain tissues were homogenized in a 50 mM Tris-HCl buffer at pH 7.4, using a 1:10 ratio (w/v). The freshly prepared homogenate was then centrifuged at 900g for 10 min, yielding a low-speed supernatant (S1). Lipid peroxidation was evaluated using the TBARS method as previously described. Lipid peroxidation was induced by 0.3 mM SNP. A 100 μL aliquot of S1 was incubated for 1 h at 37 °C in the presence of the compounds 3A, 3B, and 3C at concentrations ranging from 25 to 500 μM, and SNP or water (to control). The color reaction was initiated by adding 500 μL of a 0.8% thiobarbituric acid (TBA) solution, followed by 200 μL of 8.1% sodium dodecyl sulfate (SDS) and 500 μL of acetic acid (pH 3.4). The reaction mixture was incubated at 95 °C for 1 h. The absorbance was measured using a spectrophotometer at a wavelength of 532 nm. Trolox (100 μM), an antioxidant analogous to vitamin E, served as a positive control. The results were reported as nmol TBARS per gram of tissue. A parallel TBARS experiment was also conducted using a standard alkyl aryl selenide (2-((phenylselanyl)-methyl)-pyridine), dissolved in DMSO at the same concentrations tested, ranging from 25 to 500 μM.

The target in another data set is T2, MAO-B (Mus musculus, UniProt Q8BW75).
T2 construct: Mitochondria-enriched brain preparations were obtained in accordance with established methodology outlined in literature; from tissue; host or cells: mouse brain, mitochondria-enriched fraction
T2 sequence (Q8BW75 1-520): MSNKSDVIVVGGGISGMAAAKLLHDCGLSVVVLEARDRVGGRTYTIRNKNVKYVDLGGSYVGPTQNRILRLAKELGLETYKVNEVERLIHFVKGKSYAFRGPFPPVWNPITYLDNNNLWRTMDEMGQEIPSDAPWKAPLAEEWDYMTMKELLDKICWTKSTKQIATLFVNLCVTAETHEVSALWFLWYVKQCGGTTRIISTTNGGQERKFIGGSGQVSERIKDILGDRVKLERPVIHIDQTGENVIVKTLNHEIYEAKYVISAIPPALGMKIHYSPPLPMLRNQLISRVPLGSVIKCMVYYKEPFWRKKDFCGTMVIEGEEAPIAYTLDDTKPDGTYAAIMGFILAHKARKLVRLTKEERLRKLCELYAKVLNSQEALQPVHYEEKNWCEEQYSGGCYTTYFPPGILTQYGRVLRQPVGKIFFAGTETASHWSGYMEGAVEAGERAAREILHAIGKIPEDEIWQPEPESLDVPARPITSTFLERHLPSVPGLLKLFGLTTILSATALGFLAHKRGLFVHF
The experiment in a line: Cerebral MAO-B activity, mitochondria-enriched mouse brain fraction (kynuramine, fluorimetric). The data set is classed as biochemical. The procedure: as §1, §2

Another data set has as its system protein carbonylation. The experiment in a line: Protein carbonylation assay, SNP-induced, brain homogenate. The class given is biochemical, mouse. Here is the method:
as §3
The evaluation of protein carbonylation was performed according to a previously established protocol, using freshly prepared brain homogenate diluted at a 1:8 ratio in Tris-HCl buffer. Test compounds (10 μL), ranging in concentrations from 25 to 200 μM, were individually introduced into separate test tubes. Trolox (100 μM) served as the standard antioxidant. The diluted brain homogenate (940 μL) was then added to all tubes, followed by SNP (1 mM) as the inducing oxidative agent (50 μL). The tubes were promptly incubated at 37 °C for 2 h. Following incubation, 2 M HCl was added to blank tubes (200 μL), while 10 mM 2,4-dinitrophenyl-hydrazine (DNPH) solution was added to test tubes (200 μL). The mixture was incubated for 1 h in darkness at room temperature, with intermittent stirring every 15 min to facilitate the color reaction. Subsequently, 500 μL of denaturation buffer, 1.5 mL of ethanol, and 1.5 mL of hexane were added to all tubes, which were then vigorously shaken for 40 s. The tubes were then centrifuged at 900g for 15 min, and the supernatant was carefully decanted. The resulting pellet was washed twice with 1 mL of ethanol/ethyl acetate solution (1:1). After allowing the pellet to dry air for 2 min, it was resuspended in 1 mL of denaturation buffer and subjected to spectrophotometric analysis at 370 nm. The findings were quantified as nmol carbonyl per gram of tissue.

Details of data set [2]: method as in Prigol and colleagues. As to conditions: ref Prigol and colleagues; cited from earlier work.
Details of data set [3]: method as in Prigol and colleagues. The settings on record: 500 mg/kg dissolved in oil, per oral; ref Prigol and colleagues; cited from earlier work.
A further data set deals with rodent. As to conditions: literature value, cited from earlier work.
The subject of data set [4] is male Swiss mice. The experiment in a line: Tail suspension test (TST). The class given is in vivo, mouse. Here is the method:
A behavioral screening was conducted using the three salts to determine their potential antidepressant-like actions (n = 7–9 mice/group).
(§4) A dosage of 5 mg/kg (intragastric route, i.g., by gavage) was administered to all groups receiving the salts. […] The TST was conducted 30 min following drug administration, with the OFT being performed 4 min prior to the TST.
(§5) Following the selection of the most promising salt during screening (Compound 3B), an analysis of the compound’s time-response curve was conducted in the mouse TST. For this purpose, the animals were divided into five groups: (I) control (water; i.g.), (II) the group receiving compound 3B 15 min prior to TST, (III) the group receiving compound 3B 30 min before TST, (IV) the group receiving compound 3B 60 min before TST, and (V) the group receiving compound 3B 120 min before TST. The dosage of salt was standardized at 5 mg/kg (i.g). OFT was conducted 4 min prior to the TST.
(§6) After choosing a suitable preadministration time, the dose–response curve of the compound at this fixed time was analyzed. The animals were categorized into […]: I) a control group (administered water; i.g.) and groups II, III, IV and V) receiving compound 3B at doses of 0.5 mg/kg, 1 mg/kg, 2.5 mg/kg, and 5 mg/kg (i.g.), respectively. […] Thirty minutes postadministration, the animals underwent the TST. Four minutes prior to the TST, they underwent the OFT.
This test aims to assess depressive-like behavior and antidepressant-like action of therapies by measuring immobility. […] The test was conducted using a mouse suspension box made of wood, measuring 50 cm × 21 cm × 21 cm, designed to prevent any visual or physical interaction among the animals. A suspension bar was positioned atop the box, and the mouse’s tail was affixed to the bar using adhesive tape. The test duration was 6 min, during which the animal’s latency to the first immobility episode and the total duration of immobility (sec) were assessed.

Data set [5] relates to male Swiss mice. The data set is described as follows: Open field test (OFT) before the TST. The class given is in vivo, mouse. The settings on record: 3B 0.5–5 mg/kg i.g.; fluoxetine 20 mg/kg i.p. Here is the method: as §4, §5, §6
The aim of this behavioral test is to assess the locomotion and exploration behavior of the animals using an open field apparatus measuring 30 cm × 30 cm × 15 cm, constructed from plywood with a floor divided into nine quadrants, facilitating free movement for the animals. During the OFT, the animals were positioned in the center of the apparatus and subjected to a 5 min testing period, following the protocol outlined in literature. The number of quadrant crossings and rearings was recorded and quantified during testing phase.

The conditions of data set [6]: cited from earlier work.
The mark [7] stands for this setting: salts 5 mg/kg i.g., fluoxetine 20 mg/kg i.p., 30 min before test.

By IC50 is commonly meant the concentration at which inhibition is half-maximal. For `O=C(C[n+]1ccccc1C[Se]c1ccccc1)c1ccc(Cl)cc1.[Br-]` [Compound 3C, 1-(2-(4-chlorophenyl)-2-oxoethyl)-2-((phenylselanyl)methyl)pyridin-1-ium bromide], the “Signs of toxicity in acute oral toxicity study” value with female Swiss mice is listed as “no signs of toxicity”. The IC50 against MAO-A is 77.6 µM; in data set [1] (mouse brain homogenate, SNP-induced) it was 102 µM; at MAO-B, 125 µM; with protein carbonylation (mouse brain homogenate, SNP-induced, 25–200 μM) it was 111 µM. Moreover, on MAO-A (tested 25–200 μM, Dunnett vs control), the “Concentrations with significant inhibition of MAO-A activity” value is ≥ 50 µM. In addition, the “Concentrations effective in reversing SNP-induced oxidative damage (TBARS)” value in data set [1] (mouse brain homogenate) fell in the range of 50 to 500 µM.
For `c1ccc([Se][Se]c2ccccc2)cc1` [(PhSe)2, diphenyl diselenide], the “Solubility in isotonic phosphate buffer” value in [2] is given as “poor solubility in isotonic phosphate buffer”. The “Selenium levels in plasma” value in data set [3] was “very low levels of selenium in plasma”.
Turning to `CN(C)CC/C=C1\c2ccccc2CSc2ccccc21` [dothiepin], the “Reduction in rodent locomotor activity” value with rodent (10 mg/kg) was 73%.
Consider `c1ccc([Se]Cc2ccccn2)cc1` [2-((phenylselanyl)methyl)pyridine, reference compound], for which the “Concentrations effective in reversing SNP-induced oxidative damage (TBARS)” value in data set [1] (mouse brain homogenate) worked out at 500 µM.
On to `CNCCC(Oc1ccc(C(F)(F)F)cc1)c1ccccc1` (stereo not drawn) [Fluoxetine, reference compound], for which, in the data set on rodent (30 mg/kg), the “Reduction in rodent locomotor activity” value is given as 89%. Besides, in the data set with male Swiss mice [4] (20 mg/kg i.p., 30 min), the “TST immobility time, positive control in dose–response experiment” value is “effectively reduced the immobility time” and the “TST latency time, positive control in dose–response experiment” value is “as also observed in the fluoxetine group”. For the same compound, in the data set on male Swiss mice [4] (setting [7]), the “TST latency time to first immobility episode, screening” value is “significantly increased latency time” and the “TST total immobility time, screening” value is “shorter total immobility times”. Further, in the data set with male Swiss mice [5], the “OFT number of rearings, dose–response experiment” value was “decreased rearings”.
`Cc1c(C)c2c(c(C)c1O)CCC(C)(C(=O)O)O2` (stereo not drawn) [Trolox, reference compound]: the “Effect of positive control on SNP-induced TBARS” value in data set [1] (100 μM) is reported as “effectively reversed oxidative damage”. Moreover, in the data set with protein carbonylation (100 μM), the “Effect of positive control on protein carbonylation” value was “effective”.
For the compound `COc1ccc(C(CN(C)C)C2(O)CCCCC2)cc1` (stereo not drawn) [venlafaxine], the “Reduction in rodent locomotor activity” value in the data set on rodent (50 mg/kg) was 62%.
Take `c1ccc([Se]c2c(-c3ccccc3)cn3ccccc23)cc1` [2-phenyl-1-(phenylselanyl)indolizine]: in [6], the “Effective dose (previously studied related molecule)” value was ≥ 10 mg/kg.
